According to ChEMBL document CHEMBL2440050 (ACS Med Chem Lett, 2013):

Tests used:
HCT-116 [1] = assay: Ratio of IC50 for vinblastine-resistant human HCT116/VM46 cells overexpressing P-gp to IC50 for vinblastine-sensitive human HCT116 cells by phosphatase assay; format: functional
HCT-116 [2] = assay: Growth inhibition of vinblastine-sensitive human HCT116 cells after 72 hrs by MTS assay; format: functional, cell-based; conditions: HCT-116, 72 h
Tubulin (Sus scrofa) = Tubulin (Sus scrofa) (UniProt P02554+P02550); assay: Displacement of [3H]-VBL from porcine tubulin after 60 mins relative to control; format: protein assay
MCF7 = assay: Growth inhibition of human MCF7 cells after 72 hrs by MTS assay; format: functional, cell-based; conditions: MCF7, 72 h
NCI-H520 [3] = assay: Ratio of vinblastine IC50 to compound IC50 for human NCI-H520 cells by MTS assay; format: functional
AU565 [4] = assay: Ratio of vinblastine IC50 to compound IC50 for human AU565 cells by MTS assay; format: functional
HCT-116/VM46 [5] = assay: Ratio of vinblastine IC50 to compound IC50 for vinblastine-resistant human HCT116/VM46 cells overexpressing P-gp by MTS assay; format: functional
AU565 [6] = assay: Growth inhibition of human AU565 cells after 72 hrs by MTS assay; format: functional, cell-based; conditions: AU565, 72 h
NCI-H520 [7] = assay: Growth inhibition of human NCI-H520 cells after 72 hrs by MTS assay; format: functional, cell-based; conditions: NCI-H520, 72 h
[8] = Growth inhibition of human LNCaP-FGC cells after 72 hrs by MTS assay; format: functional, cell-based; conditions: LNCaP-Clone-FGC
HCT-116 [9] = assay: Ratio of vinblastine IC50 to compound IC50 for vinblastine-sensitive human HCT116 cells by phosphatase assay; format: functional
HCT-116 [10] = assay: Growth inhibition of vinblastine-sensitive human HCT116 cells after 72 hrs by phosphatase assay; format: functional, cell-based; conditions: HCT-116, 72 h
HCC70 [11] = assay: Growth inhibition of human HCC70 cells after 72 hrs by MTS assay; format: functional, cell-based; conditions: HCC70, 72 h
[12] = Growth inhibition of human KPL4 cells after 72 hrs by MTS assay; format: functional, cell-based; conditions: KPL4, 72 h
[13] = Ratio of vinblastine IC50 to compound IC50 for human LNCaP-FGC cells by MTS assay; format: functional
HCC1143 [14] = assay: Ratio of vinblastine IC50 to compound IC50 for human HCC1143 cells by MTS assay; format: functional
L1210 [15] = assay: Growth inhibition of mouse L1210 cells after 72 hrs by phosphatase assay; format: functional, cell-based; conditions: L1210, 72 h
[16] = Growth inhibition of human LS 174T cells after 72 hrs by MTS assay; format: functional, cell-based; conditions: LS174T
[17] = Ratio of vinblastine IC50 to compound IC50 for human KPL4 cells by MTS assay; format: functional
L1210 [18] = assay: Ratio of vinblastine IC50 to compound IC50 for mouse L1210 cells by phosphatase assay; format: functional
T47D [19] = assay: Ratio of vinblastine IC50 to compound IC50 for human T47D cells by MTS assay; format: functional
MDA-MB-468 [20] = assay: Growth inhibition of human MDA-MB-468 cells after 72 hrs by MTS assay; format: functional, cell-based; conditions: MDA-MB-468, 72 h
HCT-116/VM46 [21] = assay: Growth inhibition of vinblastine-resistant human HCT116/VM46 cells overexpressing P-gp after 72 hrs by MTS assay; format: functional, cell-based; conditions: HCT-116/VM46, 72 h
ZR-75-1 [22] = assay: Growth inhibition of human ZR-75-1 cells after 72 hrs by MTS assay; format: functional, cell-based; conditions: ZR-75-1, 72 h
HCT-116 [23] = assay: Ratio of vinblastine IC50 to compound IC50 for vinblastine-sensitive human HCT116 cells by MTS assay; format: functional
HCC70 [24] = assay: Ratio of vinblastine IC50 to compound IC50 for human HCC70 cells by MTS assay; format: functional
[25] = Growth inhibition of human SW403 cells after 72 hrs by MTS assay; format: functional, cell-based; conditions: SW-403, 72 h
MDA-MB-468 [26] = assay: Ratio of vinblastine IC50 to compound IC50 for human MDA-MB-468 cells by MTS assay; format: functional
PA-1 [27] = assay: Growth inhibition of human PA1 cells after 72 hrs by MTS assay; format: functional, cell-based; conditions: PA-1, 72 h
ZR-75-1 [28] = assay: Ratio of vinblastine IC50 to compound IC50 for human ZR-75-1 cells by MTS assay; format: functional
LS174T = assay: Ratio of vinblastine IC50 to compound IC50 for human LS 174T cells by MTS assay; format: functional
HCT-116/VM46 [29] = assay: Ratio of vinblastine IC50 to compound IC50 for vinblastine-resistant human HCT116/VM46 cells overexpressing P-gp by phosphatase assay; format: functional
HCC1143 [30] = assay: Growth inhibition of human HCC1143 cells after 72 hrs by MTS assay; format: functional, cell-based; conditions: HCC1143, 72 h
PA-1 [31] = assay: Ratio of vinblastine IC50 to compound IC50 for human PA1 cells by MTS assay; format: functional
HCT-116 [32] = assay: Ratio of IC50 for vinblastine-resistant human HCT116/VM46 cells overexpressing P-gp to IC50 for vinblastine-sensitive human HCT116 cells by MTS assay; format: functional
HCT-116/VM46 [33] = assay: Growth inhibition of vinblastine-resistant human HCT116/VM46 cells overexpressing P-gp after 72 hrs by phosphatase assay; format: functional, cell-based; conditions: HCT-116/VM46, 72 h
T47D [34] = assay: Growth inhibition of human T47D cells after 72 hrs by MTS assay; format: functional, cell-based
[35] = Ratio of vinblastine IC50 to compound IC50 for human SW403 cells by MTS assay; format: functional

Tubulin (Sus scrofa), sequence (P02550 whole entry, looked up): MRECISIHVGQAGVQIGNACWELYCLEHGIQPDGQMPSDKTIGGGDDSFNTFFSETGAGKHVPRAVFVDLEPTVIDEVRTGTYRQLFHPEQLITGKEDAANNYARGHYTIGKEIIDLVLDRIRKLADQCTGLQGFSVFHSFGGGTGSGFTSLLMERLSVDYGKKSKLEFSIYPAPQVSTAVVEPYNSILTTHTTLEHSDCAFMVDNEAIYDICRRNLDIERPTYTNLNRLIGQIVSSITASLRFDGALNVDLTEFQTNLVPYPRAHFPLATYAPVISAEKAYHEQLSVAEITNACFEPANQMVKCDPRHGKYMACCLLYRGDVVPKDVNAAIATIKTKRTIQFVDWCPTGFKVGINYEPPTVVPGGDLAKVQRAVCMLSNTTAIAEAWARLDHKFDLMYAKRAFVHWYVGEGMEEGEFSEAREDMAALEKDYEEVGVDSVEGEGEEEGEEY
Tubulin (Sus scrofa), sequence (P02554 whole entry, looked up): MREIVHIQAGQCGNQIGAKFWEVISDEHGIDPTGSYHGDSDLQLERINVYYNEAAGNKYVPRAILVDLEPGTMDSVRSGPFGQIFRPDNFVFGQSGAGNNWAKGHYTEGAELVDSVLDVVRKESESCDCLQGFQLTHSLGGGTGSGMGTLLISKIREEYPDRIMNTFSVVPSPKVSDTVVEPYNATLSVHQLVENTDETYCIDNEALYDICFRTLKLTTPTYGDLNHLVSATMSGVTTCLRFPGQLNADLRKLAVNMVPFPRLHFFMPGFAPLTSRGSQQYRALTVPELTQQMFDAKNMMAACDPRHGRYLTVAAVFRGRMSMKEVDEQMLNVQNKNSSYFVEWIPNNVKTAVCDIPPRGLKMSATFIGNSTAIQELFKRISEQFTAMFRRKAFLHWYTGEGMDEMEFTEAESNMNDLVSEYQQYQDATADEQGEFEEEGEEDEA

CC[C@]1(NC(=O)N2Cc3ccccc3C2)C[C@H]2CN(CCc3c([nH]c4ccccc34)[C@@](C(=O)OC)(c3cc4c(cc3OC)N(C)[C@H]3[C@@](O)(C(=O)OC)[C@H](OC(C)=O)[C@]5(CC)C=CCN6CC[C@]43[C@@H]65)C2)C1
Ratio IC50 (HCT-116 [1]): 13
IC50 (HCT-116 [2]): 0.16 nM
Activity (Tubulin (Sus scrofa)): 41.2%
IC50 (MCF7): > 12.5 nM
Ratio IC50 (NCI-H520 [3]): 10
Ratio IC50 (AU565 [4]): 10
Ratio IC50 (HCT-116/VM46 [5]): 10
IC50 (AU565 [6]): 0.11 nM
IC50 (NCI-H520 [7]): 0.1 nM
IC50 [8]: 0.24 nM
Ratio IC50 (HCT-116 [9]): 10
IC50 (HCT-116 [10]): 0.6 nM
IC50 (HCC70 [11]): 0.04 nM
IC50 [12]: 0.04 nM
Ratio IC50 [13]: 10
Ratio IC50 (HCC1143 [14]): 10
IC50 (L1210 [15]): 0.51 nM
IC50 [16]: 0.45 nM
Ratio IC50 [17]: 10
Ratio IC50 (L1210 [18]): 10
Ratio IC50 (T47D [19]): 10
IC50 (MDA-MB-468 [20]): 0.39 nM
IC50 (HCT-116/VM46 [21]): 3.5 nM
IC50 (ZR-75-1 [22]): 0.45 nM
Ratio IC50 (HCT-116 [23]): 10
Ratio IC50 (HCC70 [24]): 10
IC50 [25]: 0.45 nM
Ratio IC50 (MDA-MB-468 [26]): 10
IC50 (PA-1 [27]): 0.11 nM
Ratio IC50 (ZR-75-1 [28]): 10
Ratio IC50 (LS174T): 10
Ratio IC50 (HCT-116/VM46 [29]): 80
IC50 (HCC1143 [30]): 0.09 nM
Ratio IC50 (PA-1 [31]): 10
Ratio IC50 (HCT-116 [32]): 20
IC50 (HCT-116/VM46 [33]): 7.5 nM
IC50 (T47D [34]): 0.41 nM
Ratio IC50 [35]: 10
